Test results from patent publication US12016314B2, “MicroRNA inhibitor therapy in systemic lupus erythematosus” (Ohio State Innovation Foundation, priority 2017, dated 2024).

Assays:
STAT1 = STAT1 mRNA transcript expression (qPCR) in hematopoietic cell lines THP-1 and K562; settings: THP-1 cells, separate hormone treatments, normalized to untreated cells
THP-1 cells = test: Nanoparticle tracking analysis of extracellular vesicle production by THP-1 cells; assay type: cell-based, human
Protocol: (§1) To target autologous EVs containing miR-21, primary human PBMCs were isolated from whole blood as indicated above, incubated in the presence of 20% autogolous serum, and treated with locked nucleic acid (LNA) sequences designed to antagonize miR-21 (Exiqon, Vedbaek, Denmark) following liposomal complexing with DOTAP (Roche) according to the manufacturer's protocol.
The NanoSight LM 10 system (NanoSight, Wiltshire, United Kingdom) was used to measure the rate of Brownian motion of particles to determine the size and quantification of EVs. Briefly, the sample was injected in a NanoSight cubicle and the size of particles was obtained by determining the motion in fluid passing across the chamber. The number of particles per milliliter was measured from a 0-160 nm range and was acquired from both experimental and control samples for comparison using area under the curve calculations obtained via the linear trapezoidal analysis method.

IL-13 = IL-13 secretion of THP-1 cells (ELISA); assay type: cell-based, human; settings: 24 h
IL-12 = IL-12 secretion of THP-1 cells (ELISA); assay type: cell-based, human; settings: 24 h
TLR8 = TLR8 mRNA expression in primary human macrophages incubated with autologous serum; assay type: cell-based; settings: primary human macrophages of healthy donors, 24 h
Protocol: RNA was quantitated using a NanoDrop 1000 spectrophotometer (NanoDrop Products, Wilmington, DE). cDNA was synthesized using High Capacity cDNA Reverse Transcription Kit (Applied Biosystems, Foster City, CA) following the manufacturer's protocol and qPCR was performed using the TaqMan system (Applied Biosystems) using cDNA and gene specific primers in accordance with the manufacturer's protocol.
as §1

Molecule	hormonal influence on STAT1 expression (STAT1)	reduction of TLR8 mRNA expression relative to LNA-control (TLR8)	also measured
CC(=O)[C@H]1CC[C@H]2[C@@H]3CCC4=CC(=O)CC[C@]4(C)[C@H]3CC[C@]12C [progesterone]	hormonal influence was only observed with estrogen treatment	–	–
C[C@]12CCC(=O)C[C@@H]1CC[C@@H]1[C@@H]2CC[C@]2(C)[C@@H](O)CC[C@@H]12 [dihydrotestosterone, 5α-androstatin-17β-ol-one]	hormonal influence was only observed with estrogen treatment	–	–
CCOCc1nc2c(N)nc3ccccc3c2n1CC(C)(C)O [R-848]	–	–	cumulative extracellular particle profiles (0-160 nm, area under the curve) relative to miR-control (THP-1 cells): 3.7 fold; IL-13 expression upregulated relative to miR-control pseudoexosomes (IL-13): 1.75 fold; IL-12 expression induced compared to control treatment (IL-12): 5 fold
CCN(CC)CCCC(C)Nc1ccnc2cc(Cl)ccc12 (centres unmarked) [Chloroquine, chloroquine]	–	over 95%	–
LNA antagomiR-21: locked nucleic acid sequence designed to block miR-21, in liposomal complexes with DOTAP; CAACATCAGTCTGATAAGCT (LNA-modified, pattern not given here, delivered in liposomal complexes)	–	46%	–
prolactin: hormone prolactin (Sigma), 10 ng/mL (protein, UniProt P01236 29-227, looked up) Prolactin: LPICPGGAARCQVTLRDLFDRAVVLSHYIHNLSSEMFSEFDKRYTHGRGFITKAINSCHTSSLATPEDKEQAQQMNQKDFLSLIVSILRSWNEPLYHLVTEVRGMQEAPEAILSKAVEIEEQTKRLLEGMELIVSQVHPETKENEIYPVWSGLPSLQMADEESRLSAYYNLLHCLRRDSHKIDNYLKLLKCRIIHNNNC	hormonal influence was only observed with estrogen treatment	–	–
